Results from patent US11254635B2, “Emodin succinyl ester compound, preparation method therefor and application thereof” (JIANGSU KANION PHARMACEUTICAL CO., LTD., priority 2017, dated 2022).
Where two headings read alike, the source gives them in different places.

Key:
[1] = system: rats with mixed hyperlipidemia; test: Levels of TC and TG in the liver of rats with mixed hyperlipidemia, Example 6; assay type: in vivo; details: two weeks; for TC / TG: liver, high-fat diet; for effect on TC in liver / effect on TG in liver: low, medium, high doses of the ester, atorvastatin calcium 10 mg/kg, vs hyperlipidemia model group
Procedure: (§1) Feeding rats with high-fat feed containing cholesterol, sucrose, lard, and sodium cholate can form a rat model of lipid metabolism disorders, and then the rats are administrated with drug, detect the effect of the test object on hyperlipidemia, and determine the effect of the test object on the lipid absorption, lipoprotein formation, lipid degradation or excretion in rats.
(§2) Second random grouping: After the establishment of the rat hyperlipidemia model, the blood lipids of the rats were measured, and rats in the hyperlipidemia model group were randomly divided into five groups, 11 rats in the positive drug group, 10 rats in each of the other groups. The five groups were the hyperlipidemia model group, the low-dose test object group (emodin succinyl ethyl ester in a dose of 10 mg/kg·d^−1), the medium-dose test object group (emodin succinyl ethyl ester in a dose of 20 mg/kg·d^−1), the high-dose test object group (emodin succinyl ethyl ester in a dose of 40 mg/kg·d^−1), and the positive control drug group (Atorvastatin calcium group in a dose of 10 mg/kg·d^−1), respectively.
(§3) The rats in the successfully grouped high-dose test object, medium-dose, and low-dose groups and positive control drug group (atorvastatin calcium group) were intragastrically administered daily. Rats in the blank control group and the hyperlipidemia model group were given corresponding doses of lysozyme.
(§4) Feeding conditions remained unchanged. The rats were weighed once a week. Blood were collected at the tip of the tail two weeks after drug administration and livers were taken, to determine the levels of TC, TG, LDL-C, and HDL-C in serum of the rats and the levels of TC and TG in the liver, and then the effect of the test object on the TC, TG, LDL-C and HDL-C in serum of the rats and the TC and TG in liver were observed.
(3) TC and TG in liver, measured after sampling

[2] = system: oleic acid-induced hyperlipemia cells (HepG2 cell line); test: Levels of TC and TG in oleic acid-induced hyperlipemia cells; assay type: cell-based; details: for TC / TG: HepG2, oleic acid 200 μmol/L, 24 hours
Procedure: Oleic acid is added to culture HepG2 cells to induce a hyperlipemia cell model, and then the cells are given a test drug, the effect of the test object on the lipid level of the cells is detected.
When the degree of cell fusion reached about 80%, except for the normal group, cells in other groups were all added with oleic acid at a dose of 200 μmol/L, and then the cells were divided into five groups: the normal group, the oleic acid-induced hyperlipemia group, low-dose emodin succinyl ethyl ester group (5 μmol/L), the medium-dose emodin succinyl ethyl ester group (10 μmol/L) and the high dose emodin succinyl ethyl ester group (20 μmol/L). 24 hours later, the levels of TC and TG were measured.
The cells were digested with 0.25% trypsin to prepare a cell suspension; the cell suspension was centrifuged at 1000 rpm for 10 minutes; the supernatant was discarded, and the cell pellet was collected, washed with PBS once or twice, and configured at 1000 rpm for 10 minutes; the supernatant was discarded, and the cell pellet was collected.
200 μl of 2% TritonX-100 was added for lysis for 30 minutes.
First, the protein concentration of the sample was determined using the Beyotime kit. Then, 250 μl of working solution was added to a 96-well plate, 2.5 μl of distilled water was added to the blank wells, 2.5 μl of calibration solution was added to the calibration wells, 2.5 μl of sample was added to the sample wells, and they were all incubated for 10 minutes at 37° C. The OD values were measured by using a 510 nm microplate reader.
3.2.4 Calculation Formulas: Cholesterol content=(sample OD value−blank OD value)/(calibrated OD value−blank OD value)*5.17/protein concentration of the sample to be tested Triglyceride content=(sample OD value−blank OD value)/(calibrated OD value−blank OD value)*2.26/protein concentration of the sample to be tested.

[3] = system: skin wound of mice with type 1 diabetes; test: Wound healing of mice with diabetes (STZ model, 5 mm skin punch wound); assay type: in vivo, Kunming mice; details: 100 μg/mL oil, 10 μL dripped on the wound once a day, 14 days; vs diabetes model, solvent control and emodin groups
Procedure: SPF-grade male Kunming mice (18-20 g) were adaptively fed with ordinary maintenance feed for 3-5 days, weighed and randomly divided into a blank control group (Control) and a diabetes model group. Mice in the diabetes model group were administrated with high-dose STZ (streptozotocin, 180 mg/kg) through intraperitoneal injection and fasting blood glucose was measured after one week. The mice successfully modeled were randomly divided into 5 groups, namely, the diabetes model group (Model), the solvent control group (Solvent), the positive drug (recombinant human epidermal growth factor) control group (EGF), the emodin group (DHS), and the emodin succinyl ethyl ester group (DHS-YSW).
Animals in each group were anesthetized with sodium pentobarbital (1%) and shaved on the back. A 5 mm skin punch was used to establish a 5 mm wound model at the highest part of the back. The Control group and the Model group were not treated with any drugs. The solvent control group was dripped with 10 μL of sterile vegetable oil. The positive drug group was dripped with 10 μL of recombinant human epidermal factor solution (2000 IU/mL) each day. The other groups were dripped on the wound with 10 μL of a corresponding drug, once a day for 14 consecutive days. […]
The experimental data were expressed as mean±standard error. […] The experimental results were all analyzed and graphed using GraphpadPrism6.0.

[4] = system: rats with mixed hyperlipidemia; test: Blood lipid levels in rats with mixed hyperlipidemia (high-fat feed), Example 6; assay type: in vivo; details: two weeks; for effect on TG in serum: high dose of the ester; for effect on TG in serum / effect on LDL-C in serum / effect on TC in serum: atorvastatin calcium 10 mg/kg, vs hyperlipidemia group; for effect on LDL-C in serum / effect on TC in serum: low, medium, high doses of the ester; for LDL-C / TC / TG: serum, high-fat diet
Procedure: as §1, §2
In the experimental groups, rats in the blank control group were fed with maintenance feed and the remaining 5 groups were fed with high-fat diet. After 2 weeks, the levels of TG, TC, LDL-C and HDL-C in the serum of the rats were measured. The rats were weighed once a week.
as §3, §4

[5] = system: rats with mixed hyperlipidemia; test: Comparison of emodin succinyl ethyl ester and emodin in lowering blood lipid levels in rats with mixed hyperlipidemia, Example 7; assay type: in vivo
Procedure: Feeding rats with high-fat feed containing cholesterol, sucrose, lard and sodium cholate can form a rat model of lipid metabolism disorders and then the rats are administered with a drug, detect the effects of the test object on hyperlipidemia, and determine the effect of the test object on the lipid absorption, lipoprotein formation, lipid degradation or excretion in rats.
Second random grouping: After the establishment of the rat hyperlipidemia model, the blood lipids of the rats were measured, and rats in the hyperlipidemia model group were randomly divided into four groups, 11 rats in the positive drug group, 10 rats in each of the other groups. The four groups were the hyperlipidemia model group, the low-dose test object (emodin succinyl ethyl ester in a dose of 20 mg/kg·d^−1) group, the emodin (20 mg/kg·d^−1) group, and the positive control drug (Atorvastatin calcium group in a dose of 10 mg/kg·d^−1) group, respectively.
In the experimental groups, rats in the blank control group were fed with maintenance feed and the remaining 4 groups were fed with a high-fat diet. After 2 weeks, the levels of TG, TC, LDL-C and HDL-C in the serum of the rats were measured. The rats were weighed once a week.
as §3, with “grouped” for “grouped high-dose”, “object (emodin succinyl ethyl ester) group, emodin group” for “object, medium-dose, and low-dose groups”
Feeding conditions remained unchanged. The rats were weighed once a week. Blood were collected at the tip of the tail two weeks after drug administration. The effect of the test object on the TC, TG, LDL-C and HDL-C in serum of the rats were observed.

[6] = cited from earlier work
[7] = 10 mg/kg intragastrically once a day
[8] = 20 mg/kg intragastrically once a day
[9] = 40 mg/kg intragastrically once a day
[10] = low, medium and high doses (5, 10, 20 μmol/L), vs oleic acid group
[11] = 20 mg/kg·d^−1, two weeks, vs hyperlipidemia group
[12] = 20 mg/kg·d^−1 vs equivalent dose of emodin (20 mg/kg·d^−1), two weeks

SMILES: CCOC(=O)CCC(=O)Oc1cc(O)c2c(c1)C(=O)c1cc(C)cc(O)c1C2=O [emodin succinyl ethyl ester, 1,8-dihydroxy-3-succinic acid monoethyl group-6-Methylanthraquinone]
- TC [1, 7]: 0.069 ± 0.010 mmol/L
- TG [1, 7]: 0.105 ± 0.023 mmol/L
- TC [1, 8]: 0.078 ± 0.010 mmol/L
- TG [1, 8]: 0.127 ± 0.016 mmol/L
- TC [1, 9]: 0.059 ± 0.005 mmol/L
- TG [1, 9]: 0.079 ± 0.011 mmol/L
- effect on TC in liver [1]: reduce
- effect on TG in liver [1]: reduce
- TC ([2]; 5 μmol/L): 0.730 ± 0.168 mmol/L
- TG ([2]; 5 μmol/L): 0.610 ± 0.308 mmol/L
- TC ([2]; 10 μmol/L): 0.506 ± 0.197^###& mmol/L
- TG ([2]; 10 μmol/L): 0.487 ± 0.347 mmol/L
- TC ([2]; 20 μmol/L): 0.537 ± 0.145^###&& mmol/L
- TG ([2]; 20 μmol/L): 0.414 ± 0.209 mmol/L
- effect on level of TC of cells [2, 10]: significantly reduce
- effect on level of TG of cells [2, 10]: significantly reduce
- wound healing speed [3]: significantly faster wound healing speed
- effect on TG in serum [4]: significantly reduce
- effect on LDL-C in serum [4]: significantly reduce
- effect on TC in serum [4]: significantly reduce
- LDL-C [4, 7]: 0.17 ± 0.08 mmol/L
- TC [4, 7]: 2.60 ± 0.74 mmol/L
- TG [4, 7]: 3.98 ± 0.63 mmol/L
- LDL-C [4, 8]: 0.15 ± 0.05 mmol/L
- TC [4, 8]: 2.36 ± 0.78 mmol/L
- TG [4, 8]: 4.12 ± 0.37 mmol/L
- LDL-C [4, 9]: 0.18 ± 0.03 mmol/L
- TC [4, 9]: 2.88 ± 0.34 mmol/L
- TG [4, 9]: 3.23 ± 0.12 mmol/L
- effect on LDL-C in serum [5, 11]: significantly reduce
- effect on TC in serum [5, 11]: significantly reduce
- lowering LDL-C in serum compared with emodin [5, 12]: better effects
- lowering TC in serum compared with emodin [5, 12]: better effects

SMILES: Cc1cc(O)c2c(c1)C(=O)c1cc(O)cc(O)c1C2=O [emodin, 1,3,8-trihydroxy-6-methylanthraquinone]
- absolute bioavailability ([6]; female SD rats): 5%
- absolute bioavailability ([6]; male SD rats): 7.5%

SMILES: CC(C)c1c(C(=O)Nc2ccccc2)c(-c2ccccc2)c(-c2ccc(F)cc2)n1CC[C@@H](O)C[C@@H](O)CC(=O)[O-].CC(C)c1c(C(=O)Nc2ccccc2)c(-c2ccccc2)c(-c2ccc(F)cc2)n1CC[C@@H](O)C[C@@H](O)CC(=O)[O-].[Ca+2] [Atorvastatin calcium, reference compound]
- TC [1, 7]: 0.066 ± 0.004 mmol/L
- TG [1, 7]: 0.090 ± 0.008 mmol/L
- effect on TC in liver [1]: reduce
- effect on TG in liver [1]: reduce
- effect on TG in serum [4]: significantly reduce
- effect on LDL-C in serum [4]: significantly reduce
- effect on TC in serum [4]: significantly reduce
- LDL-C [4, 7]: 0.13 ± 0.03 mmol/L
- TC [4, 7]: 2.82 ± 1.02 mmol/L
- TG [4, 7]: 2.94 ± 0.20 mmol/L
